Measured values reported in paper PMC12583827, “Harnessing microbial-derived metabolites in the urinary tract to prevent infection induced catheter encrustation” (Nature Communications, 2025).

Legend:
P. mirabilis = test: In vitro glass “bladder” model of catheter encrustation; assay type: cell-based, Proteus mirabilis
Procedure: A Foley catheter is inserted aseptically into the vessel through an opening at the base, the balloon is inflated, and the catheter is attached to a catheter drainage bag (Fig. 7A). The “bladder” is supplied with sterile AUM at a physiologically relevant flow rate via peristaltic pump from a media reservoir, the “kidney” (Fig. 7A). An initial bacterial inoculum of 10^8 CFU of P. mirabilis was added to the AUM in the “bladder” inner chamber to model robust bacteriuria, followed by initiation of flow (Fig. 7B). The performance of urease-dampening metabolites was evaluated as a reduction in 1) effluent AUM pH over the 24 h study period, and 2) crystalline biofilm formation and ion precipitation on catheter segments 24 h post inoculation. Urease-dampening metabolites and AHA were introduced into the system by direct dissolution into the AUM reservoirs. For each study, both positive (untreated P. mirabilis) and negative (untreated P. mirabilis urease negative mutant) controls were included. Effluent urine samples were collected at 0, 3, 6, 9, 12 and 24 h post inoculation. This preclinical model of catheter encrustation was modified to assess whether prophylactic administration of urease-dampening metabolites increases efficacy of antimicrobials against catheter biofilms, as outlined in Fig. 9A. Each experiment was performed in triplicate. Full details of experimental set up, sample collection, and processing are provided below and in Supplementary Materials.
A previously described glass “bladder” model was used, in which a 500 mL water-jacketed glass vessel is maintained at 37 °C via a circulating water bath, a Foley catheter is inserted and inflated, and artificial urine medium (AUM) is supplied into the “bladder” at a constant flow rate (0.75-1.0 mL/min) through a peristaltic pump[55],[56]. For consistency with the in vitro urease activity assays and the physiologic range of urea in healthy human urine, AUM was supplemented with 500 mM urea[57]. Urease-dampening metabolites of interest were directly dissolved in AUM 500 mM urea, adjusted to a pH of 5.8, and filter sterilized via a 0.2μm filter. “Bladders” were inoculated with 10^8 CFUs of P. mirabilis. Samples were collected from the catheter port at 0, 3, 6, 9, 12, and 24 hours to monitor pH and bacterial CFUs. Catheters segments were processed for CFUs, crystal violet staining of biofilm biomass, and ion composition at 24 h. Full details are provided in the Supplementary Methods.
236 and the segments were air dried for 15 min. Catheter segments were stained with 1.0 ml 0.1%
237 crystal violet for 10 min, washed by gentle dunking in 1X phosphate-buffered saline (PBS) to
238 remove excess stain, and solubilized in a microcentrifuge tube containing 750μL of 1% SDS
239 95% ethanol and vortexed for 5 minutes. Crystal violet absorbance (OD570) was measured in a
240 BioTek Synergy H1 microplate reader and blanked using cell-free control wells for each biofilm
243 Catheter segment biofilm viability. Catheter segments were washed by gentle dunking in 1X
244 phosphate-buffered saline (PBS) to remove any remaining planktonic bacteria and residual AUM
245 from the catheter lumen. Catheter segments were then placed in a microcentrifuge tube
246 containing 1mL of 1X PBS and vortexed for 5 minutes to solubilize the biofilm. Samples
247 underwent serial 10-fold dilutions and were spiral plated (Eddy Jet 2; Neutec Group Inc.,
248 Farmingdale, NY) onto low-salt LB agar for enumeration of CFU using a ProtoCOL 3 automated
249 colony counter (Synbiosis).
251 Catheter segment elemental composition. Catheter segments were placed in a microcentrifuge

[1] = test system: human gastric cancer cells (SGC-7901); settings: cited from earlier work
lymphoblasts (K562) = settings: cited from earlier work
[2] = test system: epithelial-like hepatocellular carcinoma cells (HepG2); settings: cited from earlier work
[3] = cited from earlier work
[4] = 24 h, alone: 5 mM AHA, 25 mM histamine, 25 mM 4-imidazole acetate

CC(=O)NO [AHA, acetohydroxamic acid, reference compound]
crystalline biofilm formation (P. mirabilis; 24 h, alone: 1.25 mM AHA, 12.5 mM histamine, 12.5 mM 4-imidazole acetate): no impact on crystalline biofilm formation | Magnesium and phosphorus precipitation on catheter segments (ICP-OES) (P. mirabilis; [4]): reduced, although the reduction was not statistically significant | catheter biofilm biomass (crystal violet) vs untreated P. mirabilis (P. mirabilis; [4]): significantly reduced biofilm biomass | pH of AUM collected from “bladders” over 24 h (P. mirabilis; alone, lower concentrations): failed to restrict pH | pH of AUM collected from “bladders” over 24 h (P. mirabilis; alone: 5 mM AHA, 25 mM histamine, 25 mM 4-imidazole acetate, nucleation point ~ pH 8): never surpassed the nucleation point | P. mirabilis CFUs in effluent over time (P. mirabilis; tested individually): no meaningful differences between CFUs over time | urease-mediated pH increase (P. mirabilis; tested individually, dose response): perturbed urease-mediated pH increase in a dose-dependent manner | decrease in viability of SGC-7901 [1]: 60-70% | decrease in viability of K562 (lymphoblasts (K562)): 60-70% | decrease in viability of HepG2 [2]: 60-70% | efficacy in clinical trials [3]: showed efficacy in preventing urinary stone formation | severe side effects ([3]; in vivo): teratogenesis, hemolytic anemia, psychoneurological and muscular symptoms
